Assay results published in US10646580B2, “Oligosaccharide conjugates for targeting bacteria and uses related thereto” (priority 2011, dated 2020).
≈ marks a conversion by molar mass, not a printed value.

System: Escherichia coli (ATCC 33456)
Assay: Ampicillin IC50 in E. coli
Format: cell-based
Conditions: ATCC33456
Method: The ability of antibiotics to inhibit the uptake of MDP-1 in Escherichia coli was investigated. Escherichia coli (ATCC 33456) were grown in LB medium at 37° C. under 5% CO2 to an OD600=0.5, as described above. […] Escherichia coli were incubated with ampicillin for 1 hour at 37° C. under 5% CO2, and 60 μL of MDP-1 stock solutions (1 mM in PBS) were added, generating a 20 μM MDP concentration. Escherichia coli were incubated with MDPs in the presence of ampicillin for 1 hour at 37° C. under 5% CO2 in an incubator shaker. At this stage, a small aliquot of the bacterial culture was plated to determine the CFUs of bacteria in the MDP solution. Escherichia coli were harvested by centrifuging and the resulting pellets were washed 3 times with 10 mL PBS. The intracellular fluorescence of the bacteria was determined as described in FIG. 3a.

Q: How did the IC50 turn out when CC1(C)S[C@@H]2[C@H](NC(=O)[C@H](N)c3ccccc3)C(=O)N2[C@H]1C(=O)O [ampicillin] was run?
A: 3 µg/mL (≈ 8.59 µM)
